The results in this text go back to PMC10709440, “High-throughput ligand profile characterization in novel cell lines expressing seven heterologous insect olfactory receptors for the detection of volatile plant biomarkers” (Scientific Reports, 2023).

One assay concerns the target T1, Drosophila OR49b (Drosophila melanogaster, UniProt Q9V6H2).
T1 construct: expressed in transfected cells
T1 sequence (Q9V6H2 1-375): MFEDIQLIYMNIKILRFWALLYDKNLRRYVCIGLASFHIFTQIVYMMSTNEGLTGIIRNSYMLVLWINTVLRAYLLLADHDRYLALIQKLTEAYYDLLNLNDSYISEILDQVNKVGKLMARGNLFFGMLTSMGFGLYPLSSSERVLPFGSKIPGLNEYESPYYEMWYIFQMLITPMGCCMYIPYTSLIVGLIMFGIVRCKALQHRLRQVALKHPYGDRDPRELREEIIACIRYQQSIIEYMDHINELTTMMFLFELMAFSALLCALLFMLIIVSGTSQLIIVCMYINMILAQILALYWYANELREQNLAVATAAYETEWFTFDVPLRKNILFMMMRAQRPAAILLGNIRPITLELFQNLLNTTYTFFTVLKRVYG
T1 sequence (Q9VNB5 1-486 partner): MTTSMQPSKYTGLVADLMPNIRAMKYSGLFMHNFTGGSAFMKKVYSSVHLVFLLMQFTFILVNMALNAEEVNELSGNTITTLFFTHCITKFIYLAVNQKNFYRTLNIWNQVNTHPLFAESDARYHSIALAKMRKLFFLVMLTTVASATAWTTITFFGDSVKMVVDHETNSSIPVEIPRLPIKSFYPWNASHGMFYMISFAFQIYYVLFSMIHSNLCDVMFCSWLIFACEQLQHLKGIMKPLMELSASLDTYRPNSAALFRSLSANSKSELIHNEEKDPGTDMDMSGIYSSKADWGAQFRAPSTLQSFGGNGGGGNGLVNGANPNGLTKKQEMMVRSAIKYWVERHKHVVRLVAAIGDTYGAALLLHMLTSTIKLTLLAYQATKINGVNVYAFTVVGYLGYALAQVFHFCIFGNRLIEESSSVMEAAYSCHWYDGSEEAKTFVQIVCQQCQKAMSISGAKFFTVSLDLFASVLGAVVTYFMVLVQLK
Kind of assay: cell-based. Particulars: for activation at 1 µM / activation at 10 µM / activation at 100 µM: HEK293; for Average response: OR49b cell line, mean of biological replicates. A digest of the protocol: (§1)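 Responses are VUAA1-normalized ΔF: each VOC-evoked calcium signal, (FMAX−F0)/F0 over 30 s after injection, divided by the same line's mean 50 µM VUAA1 response. Cells were doxycycline-induced HEK293 with GCaMP6 and the cognate Drosophila OR, in HEPES buffer pH 7.3; ligands tested 0.01–100 μM.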

A further assay addresses T2, Drosophila OR13a (Drosophila melanogaster, UniProt Q9VXL0).
T2 construct: expressed in transfected cells
T2 sequence (Q9VXL0 1-418): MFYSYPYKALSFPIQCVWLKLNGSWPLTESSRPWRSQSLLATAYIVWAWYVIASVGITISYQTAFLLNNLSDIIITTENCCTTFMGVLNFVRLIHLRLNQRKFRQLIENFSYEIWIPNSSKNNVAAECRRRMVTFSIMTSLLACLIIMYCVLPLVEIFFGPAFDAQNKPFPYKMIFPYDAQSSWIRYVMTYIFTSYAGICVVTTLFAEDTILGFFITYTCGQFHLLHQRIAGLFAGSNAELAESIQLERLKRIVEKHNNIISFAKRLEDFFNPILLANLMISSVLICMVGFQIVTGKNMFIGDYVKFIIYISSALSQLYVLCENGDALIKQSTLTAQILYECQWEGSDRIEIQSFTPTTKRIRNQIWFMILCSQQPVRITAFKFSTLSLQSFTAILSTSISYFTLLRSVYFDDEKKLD
T2 sequence (Q9VNB5 1-486 partner): T1 sequence (Q9VNB5 1-486 partner)
The assay can be described thus: Calcium ion fluorescence (GCaMP6) assay, OR13a stable HEK293 cell line. Particulars: for dose-response, AVERAGE response: N 3. It is filed as cell-based. A digest of the protocol: as §1

[1] abbreviates: VOC concentration 1 μM, read-out: OR49b response (VUAA1-normalized response).
The mark [2] stands for this setting: VOC concentration 10 μM, read-out: OR49b response (VUAA1-normalized response).
Setting [3] is: VOC concentration 100 μM, read-out: OR49b response (VUAA1-normalized response).
The mark [4] stands for this setting: HEK293, read-out: OR13a Average response (VUAA1-normalized), 1 μM VOC, 50 μM VUAA1 = 1, responses not exceeding 0.05 considered 0.
Where [5] appears, read: HEK293, read-out: OR13a Average response (VUAA1-normalized), 10 μM VOC, 50 μM VUAA1 = 1, responses not exceeding 0.05 considered 0.
Where [6] appears, read: HEK293, read-out: OR13a Average response (VUAA1-normalized), 100 μM VOC, 50 μM VUAA1 = 1, responses not exceeding 0.05 considered 0.
[7] abbreviates: HEK293, read-out: OR13a response (VUAA1-normalized response), VOC concentration 1 μM.
The mark [8] stands for this setting: HEK293, read-out: OR13a response (VUAA1-normalized response), VOC concentration 10 μM.
[9] abbreviates: HEK293, read-out: OR13a response (VUAA1-normalized response), VOC concentration 100 μM.
Where [10] appears, read: concentration 1, normalized fluorescence change, values below 0.05 threshold given as 0.
Setting [11] is: concentration 10, normalized fluorescence change, values below 0.05 threshold given as 0.
Setting [12] is: concentration 100, normalized fluorescence change, values below 0.05 threshold given as 0.
Where [13] appears, read: the 13th table, VOC concentration 2.5.
Where [14] appears, read: the 13th table, VOC concentration 5.
Where [15] appears, read: the 13th table, VOC concentration 25.
Setting [16] is: the 13th table, VOC concentration 50.
Setting [17] is: the 13th table, VOC concentration 100.
Where [18] appears, read: ligand concentration 1 (unit not given), threshold 0.05, below shown as 0.
The mark [19] stands for this setting: ligand concentration 10 (unit not given), threshold 0.05, below shown as 0.
Setting [20] is: ligand concentration 100 (unit not given), threshold 0.05, below shown as 0.

The pEC50 is the negative decadic logarithm of the EC50, by convention in mol/L.

Molecules are shown by their SMILES. pEC50: −log10 of the molar value. “And” between values parts separate entries of the source, which are not always exact repeats. Equal values may be shown once. Read-outs that look alike come from different tables or passages of the source.

Turning to `C=CC(O)C/C=C\CC` (stereo not shown) [(5Z)-octa-1,5-dien-3-ol], on Drosophila OR49b, the “DF norm AVERAGE OR49b” value was 0. The activation at 1 µM on Drosophila OR49b (setting [1]), on Drosophila OR13a (setting [4]) and on Drosophila OR13a (setting [7]) was 0% throughout. The values for the activation at 10 µM on Drosophila OR49b (setting [2]), on Drosophila OR13a (setting [5]) and at Drosophila OR13a (setting [8]) were 0%, 15% and 15%, respectively. Also, the values for the activation at 100 µM on Drosophila OR49b (setting [3]), at Drosophila OR13a (setting [6]) and on Drosophila OR13a (setting [9]) were 0%, 37% and 37%, respectively. The Average response is reported as 0.00 at Drosophila OR49b (odorant cc. 1 µM), 0.04 on Drosophila OR49b (odorant cc. 10 µM) and 0.00 on Drosophila OR49b (odorant cc. 100 µM). In addition, the pEC50 was 5.14 at Drosophila OR13a (EC50, fitted average curve, the 13th table, fit to the average curve, n 0.854956); 5.00 and 5.52 and 5.23 on Drosophila OR13a (EC50, fitted parameter per biological replicate, the 13th table, OR13a D-R (5Z)-octa-1,5-dien-3-ol, individual replicate fits, MIN 0, n 1); 5.00 and 5.52 and 5.23 on Drosophila OR13a (EC50, fitted parameter per biological replicate, the 13th table, individual replicate fits). Besides, the “DF norm AVERAGE OR13a” value on Drosophila OR13a (setting [10]) came to 0; at Drosophila OR13a (setting [11]), 0.1531; on Drosophila OR13a (setting [12]) it was 0.3701. In addition, the “dose-response, response per biological replicate” value on Drosophila OR13a (setting [13]) was 0 and 0.07532 and 0.2134; on Drosophila OR13a (setting [14]), 0.1122 and 0.07908 and 0.2962; at Drosophila OR13a (setting [15]) it was 0.1336 and 0.1252 and 0.4462; at Drosophila OR13a (setting [16]), 0.1449 and 0.1487 and 0.5376; at Drosophila OR13a (setting [17]) it was 0.2093 and 0.133 and 0.6441. In addition, the “dose-response, AVERAGE response” value at Drosophila OR13a (setting [13]) is given as 0.09623; at Drosophila OR13a (setting [14]), 0.1625; on Drosophila OR13a (setting [15]) it was 0.235; at Drosophila OR13a (setting [16]) it was 0.2771; at Drosophila OR13a (setting [17]), 0.3288. Also, the “MAX, fitted average curve” value on Drosophila OR13a (the 13th table, fit to the average curve, n 0.854956) is recorded as 0.3433. On Drosophila OR13a (the 13th table, individual replicate fits), the “MAX, fitted parameter per biological replicate” value is 0.2031 and 0.1439 and 0.6228 and 0.37.

Take `CCCCCCCO` [1-heptanol]: the figures for the activation at 1 µM at Drosophila OR49b (setting [1]), at Drosophila OR13a (setting [4]) and at Drosophila OR13a (setting [7]) were 0%, 2% and 0%, respectively. For the same molecule, the activation at 10 µM at Drosophila OR49b (setting [2]) is 0%; on Drosophila OR13a (setting [5]) it was 15%; on Drosophila OR13a (setting [8]), 15%. Also, the activation at 100 µM was found to be 6% at Drosophila OR49b (setting [3]), 22% on Drosophila OR13a (setting [6]) and 22% at Drosophila OR13a (setting [9]). The Average response was determined as 0.00 on Drosophila OR49b (odorant cc. 1 µM), 0.00 on Drosophila OR49b (odorant cc. 10 µM) and 0.06 at Drosophila OR49b (odorant cc. 100 µM). Further, the results for the “DF norm AVERAGE OR13a” value on Drosophila OR13a (setting [10]), at Drosophila OR13a (setting [11]) and on Drosophila OR13a (setting [12]) were 0, 0.145 and 0.219, respectively.

For the molecule `Cc1cccc(O)c1` [3-methylphenol], the activation at 1 µM came to 0% on Drosophila OR49b (1 μM VOC, 50 μM VUAA1 = 1, read-out: OR49b Average response (VUAA1-normalized)); 0% on Drosophila OR49b (setting [1]); 0% on Drosophila OR13a (setting [4]); 0% on Drosophila OR13a (setting [7]). The activation at 10 µM at Drosophila OR49b (10 μM VOC, 50 μM VUAA1 = 1, read-out: OR49b Average response (VUAA1-normalized)) is 13%; at Drosophila OR49b (setting [2]), 13%; on Drosophila OR13a (setting [5]), 0%; on Drosophila OR13a (setting [8]), 0%. Also, the activation at 100 µM was determined as 43% at Drosophila OR49b (100 μM VOC, 50 μM VUAA1 = 1, read-out: OR49b Average response (VUAA1-normalized)); 43% at Drosophila OR49b (setting [3]); 1.35% on Drosophila OR13a (setting [6]); 0% at Drosophila OR13a (setting [9]). Moreover, the Average response at Drosophila OR49b (odorant cc. 1 µM) is given as 0.00; on Drosophila OR49b (odorant cc. 10 µM), 0.13; on Drosophila OR49b (odorant cc. 100 µM) it was 0.43. For the same molecule, the “DF norm AVERAGE OR13a” value at Drosophila OR13a (setting [10]), at Drosophila OR13a (setting [11]) and at Drosophila OR13a (setting [12]) was 0 in each case.

`CCCCCC(O)CC` (stereo not shown) [3-octanol]: the activation at 1 µM on Drosophila OR49b (setting [1]), at Drosophila OR13a (setting [4]) and on Drosophila OR13a (setting [7]) was 0% in each case. Moreover, the activation at 10 µM was determined as 7% at Drosophila OR49b (setting [2]), 0% at Drosophila OR13a (setting [5]) and 0% at Drosophila OR13a (setting [8]). Moreover, the figures for the activation at 100 µM at Drosophila OR49b (setting [3]), on Drosophila OR13a (setting [6]) and on Drosophila OR13a (setting [9]) were 5.5%, 12% and 12%, respectively. The values for the Average response on Drosophila OR49b (odorant cc. 1 µM), at Drosophila OR49b (odorant cc. 10 µM) and on Drosophila OR49b (odorant cc. 100 µM) were 0.00, 0.07 and 0.055, respectively. For the same molecule, the “DF norm AVERAGE OR13a” value on Drosophila OR13a (setting [10]) stood at 0; at Drosophila OR13a (setting [11]), 0; at Drosophila OR13a (setting [12]), 0.1167.

Regarding `CC1=CCC2CC1C2(C)C` (stereo not drawn) [alpha-pinene], the activation at 1 µM at Drosophila OR49b (setting [1]), on Drosophila OR13a (setting [4]) and on Drosophila OR13a (setting [7]) was 0% throughout. Further, the activation at 10 µM at Drosophila OR49b (setting [2]), on Drosophila OR13a (setting [5]) and on Drosophila OR13a (setting [8]) was 0% throughout. Also, the activation at 100 µM on Drosophila OR49b (setting [3]) was determined as 0%; on Drosophila OR13a (setting [6]) it was 1.73%; on Drosophila OR13a (setting [9]), 0%. The values for the Average response on Drosophila OR49b (odorant cc. 1 µM), at Drosophila OR49b (odorant cc. 10 µM) and at Drosophila OR49b (odorant cc. 100 µM) were 0.0281, 0.00 and 0.00, respectively. Also, the “DF norm AVERAGE OR49b” value at Drosophila OR49b (setting [18]), at Drosophila OR49b (setting [19]) and at Drosophila OR49b (setting [20]) was 0 each time. For the same molecule, the “DF norm AVERAGE OR13a” value on Drosophila OR13a (setting [18]), at Drosophila OR13a (setting [19]) and at Drosophila OR13a (setting [20]) was 0 each time.
